How the values were obtained:
[1] = system: termites; assay: Feeding on bait matrix with chitin synthesis inhibitor added; format: in vivo; settings: added to the bait matrix of the bioassays
Experimental: Note that Chitin synthesis inhibitors, such as hexaflumuron, were added to the bait matrix described in the bioassays above resulting in less feeding on the bait matrix treated with hexaflumuron compared to its control. […] Accordingly, it is believed that adding sitosterol to such a bait matrix may provide a way to overcome the termites' aversion to hexaflumuron.

[2] = system: Mastotermes darviniensis; settings: in vivo; cited from earlier work
[3] = system: Coptotermes lacteus; settings: in vivo; cited from earlier work
[4] = system: termites; settings: limited by volatility of the compound; cited from earlier work
[5] = system: termites; settings: ambient atmosphere; cited from earlier work
[6] = system: Reticulitermes tibialis; assay: Field test of sitosterol cellulose pellets in underground termite jar traps; format: in vivo; settings: pellet 1% sitosterol and 99% cellulose, 15 jar traps in the field, FIG. 1
Experimental: Sitosterol was tested in the field as a feeding stimulant for Reticulitermes tibialis. Sitosterol (300 mg) was dissolved in 30 ml of acetone and added to 30 gm of cellulose powder (from Bio-Serv Inc., Frenchtown, N.J.), and the combination was dried overnight. A hydraulic press (providing 15,000 pounds per square inch force) was used to make hard pellets (wherein each pellet was approximately 3 gm, 2.5 cm diameter, 5 mm thickness, having 1% sitosterol and 99% cellulose). Control pellets of cellulose powder alone (3 gm) were made similarly.
The pellets were tested in underground termite traps made from Nalgene jars (having dimensions of approximately 10 cm diameter, 10 cm height) with 3 mm holes drilled at 3 cm intervals to allow termites to enter each jar. The jar traps were filled with soil (20% moisture). Two pellets were placed on the surface of the soil both within and at the top of each jar trap, one pellet containing cellulose (3 gm) plus sitosterol […] and the other pellet containing only cellulose (3 gm).
One of the jar traps containing a 1% sitosterol pellet and a cellulose control pellet was placed at the base of a fence post that was previously determined to be infested with termites. The traps were checked once a week for feeding. When termite feeding was apparent, both pellets were removed and weighed to determine the amount of each pellet that had been eaten. […]

[7] = system: Reticulitermes tibialis; assay: Cellulose TLC plate feeding bioassay; format: in vivo; settings: every dose tested: 30, 100 and 300 ugm per cellulose square; 100 termites, up to 7 days, FIG. 2
Experimental: Such behavioral feeding bioassays were conducted using the following protocol.
(§1) Termite workers (100 total) were removed from their storage tubs and placed in a smaller plastic Rubbermaid® tub (having a volume of 414 ml) that contained soil (with a 20% by weight moisture). These termites were allowed to acclimate to their new surroundings for 24 hours before the feeding bioassay began. Solutions of sitosterol in acetone (of 1.0 ugm/ul, […], or 10 ugm/ul, respectively) were applied to three different cellulose squares with a Hamilton syringe (of 100 micro-liters (ul) capacity), wherein the squares were provided on a single thin-layer chromatography (TLC) glass plate. For the three cellulose squares, each single cellulose square (of 13.43 mg of cellulose) was evenly wetted with 30 ul of only one of the solutions. Thus, a dose of one of 30 ugm, 100 ugm or 300 ugm of sitosterol was applied, respectively, to a corresponding one of the cellulose squares. Accordingly, the concentrations on these three cellulose squares were, respectively, 2.23 ugm sitosterol/mg cellulose (equivalently, […] sitosterol to cellulose), 7.45 ugm sitosterol/milligram (mg) cellulose (equivalently, 0.745% sitosterol to cellulose), and 22.34 ugm sitosterol/mg cellulose (equivalently, 2.23% sitosterol to cellulose). Note that a fourth cellulose square was treated with 30 ul of acetone as a control. […]

[8] = system: Coptotermes formosanus; assay: Cellulose TLC plate feeding bioassay; format: in vivo; settings: 2.23, 7.45 and 22.34 ugm sitosterol/mg cellulose, FIG. 4
Experimental: as §1

[9] = system: Reticulitermes tibialis; assay: Paper feeding bioassay; format: in vivo; settings: 0.60, 2.00 and 5.99 ugm sitosterol/mg paper bait substrate; 100 termites, FIG. 3
Experimental: The termites in the tub were allowed to acclimate to their new surroundings for 24 hours before the present feeding bioassay began. Each of three rectangular bait matrixes (each matrix being approximately 100 mg of bait substrate, the substrate being paper) was divided in two halves with a pencil line, each half having a 50.06 mg bait substrate upon which the termites were to feed. For each bait matrix, one half (the “experimental” half) was provided with a given sitosterol dose, and the other half was provided as a control, and accordingly had no sitosterol applied thereto. In particular, for each bait matrix, exactly one of three solutions of sitosterol in acetone (each solution having one of the concentrations: 1 ugm/ul, […], or 10 ugm/ul) was applied to the “experimental” half of the bait matrix with a Hamilton syringe (of 100 ul capacity), and only acetone was applied to the other (control) half as a control. More precisely, the experimental half of each bait matrix rectangle was evenly wetted with 30 ul of a different one of the solutions of sitosterol, thus applying on the experimental bait matrix half of each bait matrix a dose of only one of 30 ugm, 100 ugm or 300 ugm of sitosterol. The sitosterol concentrations tested were therefore 0.60, 2.00, and 5.99 ugm sitosterol/mg of bait substrate. […]

[10] = system: termites; assay: Toxic effects of sitosterol to termites; settings: in vivo
Description: (§2) Several aspects of sitosterol make it a promising compound for enhancing Coptotermes formosanus, and Reticulitermes tibialis control. […] Termite baits are most frequently placed in the soil where moisture conditions are a factor; i.e., soil having at least 20% moisture, and/or occasionally saturated with water. […] Sitosterol has little toxic risk, and it has been tested in humans as an alternative method to lower plasma cholesterol levels. Sitosterol is an economically rational additive to a termite bait system. For example, the cost of the sitosterol needed to treat one termite bait roll of the size and proportion of paper (e.g., 10 cm by 100 cm) is about one cent to reach the concentration of our highest tested dose (300 ugm).

[11] = Physical properties of sitosterol; format: physicochemical
Description: as §2

[12] = system: Coptotermes formosanus Shiraki; settings: in vivo; cited from earlier work
[13] = system: termites; settings: extended feeding tests, e.g. greater than 30 days; cited from earlier work

O=C(NC(=O)c1c(F)cccc1F)Nc1cc(Cl)c(OC(F)(F)C(F)F)c(Cl)c1 [hexaflumuron]
feeding on treated bait matrix compared to its control [1]: less feeding

Oc1ccc(O)cc1 [Hydroquinone]
feeding stimulation [2]: stimulated feeding | feeding stimulation [3]: stimulated feeding | duration of phagostimulatory effects [4]: one month

O=C=O [CO2, carbon dioxide]
CO2 concentration attractive to termites [5]: at least 0.2 % by volume

CC[C@H](CC[C@@H](C)[C@H]1CC[C@H]2[C@@H]3CC=C4C[C@@H](O)CC[C@]4(C)[C@H]3CC[C@]12C)C(C)C [sitosterol]
amount of pellet eaten by the termites versus cellulose control pellet [6]: more than twice as much | feeding on cellulose treated with sitosterol versus control square [7]: fed significantly more | feeding on cellulose squares having sitosterol versus control square [8]: ate substantially more | area of bait matrix half consumed versus control side [9]: consumed substantially more than the control side | toxic effects to termites [10]: no toxic effects | stability and volatility [11]: stable, nonvolatile | hydrophobicity ([11]; soil moisture/water): hydrophobic compound which resists being washed off

N[C@H](CC(=O)O)C(=O)O [D-aspartic acid]
feeding compared with a water control [12]: fed upon more than a water control | toxicity to termites [13]: has shown toxicity to termites

N[C@@H](CCC(=O)O)C(=O)O [L-glutamic acid]
feeding compared with a water control [12]: fed upon more than a water control
